Earlier results as cited in patent US8956592B2, “Oral care compositions” (Colgate-Palmolive Company, priority 2010, dated 2015).

Test system: S. mutans, F. nucleatum, V. parvula, A. naslundii, P. gingivitis
Settings: in vitro tests

Structure (SMILES) | bactericidal properties against representative oral bacteria
CCCc1ccc(O)c(-c2ccc(O)c(CCC)c2)c1 [tetrahydrohonokiol, 3′,5-dipropylbiphenyl-2,4′-diol] | bactericidal properties
C=CCc1ccc(O)c(-c2ccc(O)c(CC=C)c2)c1 [honokiol] | bactericidal properties
CCCc1ccc(O)c(-c2cc(CCC)ccc2O)c1 [tetrahydromagnolol, 5,5′-dipropylbiphenyl-2,2′-diol] | bactericidal properties
C=CCc1ccc(O)c(-c2cc(CC=C)ccc2O)c1 [magnolol] | bactericidal properties
